Results: patent publication US20100113406A1, “USE OF GLUCOCORTICOIDS FOR TREATMENT OF CONGESTIVE HEART FAILURE” (priority 2007, published 2010)
“Also recorded” adds a separate entry of the source.

Key:
[1] = Pharmacokinetic study in normal Wistar rats (IPC vs IV infusion, corticosterone levels by HPLC); assay type: in vivo, Wistar rat; conditions: local (intrapericardial) administration versus systemic (IV) administration of the same amount of drug; 4 weeks infusion; FIG. 2
Description: (§1) Normal Wistar rats were used for this Example. Animals were housed at the animal facilities of the University of Maastricht with a 12-hour light/dark cycle and had free access to standard rat chow and tap-water. Experiments were performed according to institutional guidelines and conformed to the Guide for the Care and Use of Laboratory Animals published by the US National Institutes of Health (NIH Publication No. 85-23, revised 1996).
The rats underwent a surgical procedure to install pericardial and intravenous catheters and minipumps. Construction of the pericardial catheters and the procedure to install the catheter into the pericardial space were conducted as described by Hermans, which has been discussed above.
Briefly, the pericardial catheters consisted of silicone tubing (internal diameter: 0.51 mm; external diameter 0.94 mm, Degania Silicone, Degania Bet, Israel), which, by assembling its endings with a polyolefin shrinking sleeve (Farnell Compounds, Maarssen, the Netherlands), was shaped as a loop (length appr. 2 cm, width appr. 1 cm). Silicone glue was applied in the middle of the loop, to create two separate chambers (one used for fluid injection, the second closed, i.e. connected to a closed ending). The fluid infusion chamber was provided with holes by use of a 25-gauge perforator. […]

[2] = tested on: spontaneous hypertensive heart failure (SHHF) rats; assay: Left ventricular pressures, contractility, relaxation, arterial pressure and heart rate in SHHF rat model of CHF; assay type: in vivo
Description: as §1, with “Forty to forty-two week old male lean spontaneous hypertensive heart failure (SHHF)” for “Normal Wistar”, “rats (originally obtained from Charles River, Boston, USA)” for “rats”, “used.” for “used for this Example.”
The rats underwent a surgical procedure to install pericardial and intravenous catheters and minipumps according to the procedure of Example 1.
Animals were randomly assigned to treatment groups (n=9 per group). Total treatment time was 4 weeks for all animals. The groups were as follows: • (1) corticosterone high dose IPC (60 micrograms/day) • (2) corticosterone low dose IPC (6 micrograms/day) • (3) corticosterone high dose IV (60 micrograms/day) • (4) corticosterone low dose IV (6 micrograms/day) • (5) vehicle
Where IPC—intrapericardial dosing, and IV=intravenous dosing.
During treatment, Group 5 (vehicle) rats were continuously infused with vehicle (40% polyethylene glycol in water; 60 μl/day) via both catheters. Experimental groups obtained continuous infusions as follows: • Group (1)—a high dose (60 ug/day) of corticosterone hemisuccinate intrapericardially and vehicle intravenously; • Group (2)—a low dose (6 ug/day) of corticosterone hemisuccinate intrapericardially and vehicle intravenously; • Group (3)—a high dose (60 ug/day) of corticosterone hemisuccinate intravenously and vehicle intrapericardially; and • Group (4)—a low dose (6 ug/day) of corticosterone hemisuccinate intravenously and vehicle intrapericardially. • Corticosterone hemisuccinate was purchased from Sigma (St Louis, Mo.)
Left ventricular pressures, contractility and relaxation were evaluated at the end of the study as described in B J Janssen et al., “Effects of anesthetics on systemic hemodynamics in mice.” Am J Physiol Heart Circ Physiol 287:H1618-1624 (2004). For this purpose rats were anaesthetized with pentobarbital (50 mg/kg i.p., Sigma). A high-fidelity catheter tip micromanometer (Mikro-tip 1.4F; SPR-671, Millar Instruments, Houston, Tex., USA) was inserted into the left ventricular cavity through the right carotid artery. Before the tip was inserted into the left ventricle, mean arterial pressures and heart rates were briefly recorded in the carotid artery. Left ventricular pressure was measured and sampled at a rate of 2 kHz under an I.V. ramp infusion of dobutamine up to 5 ng/gBW/min (Sigma) using a microinjection pump (model 200 Series, KD Scientific, Boston, Mass., USA). Maximal positive (+dp/dt/p) and negative (−dp/dt/p) pressure development were determined. At the end of the experiment blood and organs were harvested, weighed and rapidly processed and frozen for future analyses.

[3] = tested on: spontaneous hypertensive heart failure (SHHF) rats; assay: Left ventricular collagen by Picro Sirius Red staining in SHHF rats; assay type: in vivo, rat; conditions: 6 or 60 micrograms/day IPC or IV, 4 weeks, FIG. 12
Description: as §1, with “Forty to forty-two week old male lean spontaneous hypertensive heart failure (SHHF)” for “Normal Wistar”, “rats (originally obtained from Charles River, Boston, USA)” for “rats”, “used.” for “used for this Example.”
(§2) Animals were randomly assigned to treatment groups (n=9 per group). Total treatment time was 4 weeks for all animals. […]
Collagen volume fraction of each section was determined using a computer image analyzing system (Leica Q-Win). Interstitial collagen density of heart sections was evaluated in the left ventricle (LV) subepicardial myocardium regions. Ten fields from each region (magnification ×20) were randomly selected for analyses and the area stained was calculated as percentage of the total area within a field.
Perivascular collagen was expressed as ratio of the area of the collagen surrounding the vessel divided to the area of the coronary arteries media in order to correct for differences in vessel size (magnification ×20 or ×40). We calculated an average value for interstitial and perivascular fibrosis or each animal. […]

[4] = tested on: spontaneous hypertensive heart failure (SHHF) rats; assay: Transthoracic echocardiography in SHHF rats; assay type: in vivo, rat; conditions: treatment end versus treatment start, FIG. 4
Description: as §1, with “Forty to forty-two week old male lean spontaneous hypertensive heart failure (SHHF)” for “Normal Wistar”, “rats (originally obtained from Charles River, Boston, USA)” for “rats”, “used.” for “used for this Example.”
as §2
At the start and end of the treatment, transthoracic echocardiography was performed under isoflurane anesthesia in part of the rats (5-7 per group) using the SONOS 5500 echocardiographic system equipped with a 15-MHz linear-array transducer (Philips Medical Systems Corp., Netherlands). […] The 2-dimensional parasternal long- and short-axis view of the left ventricle and the parasternal short axis M-mode tracings were recorded.
Measurements and calculations performed are the following: percent LV fractional shortening (FS) was calculated as follows: […], where LVIDd and LVIDs are end-diastolic and end-systolic left ventricle internal dimensions, respectively. […]

[5] = tested on: collagens I and III and BNP mRNA; assay: Left ventricular gene expression levels of collagens I and III and BNP (real-time PCR) in SHHF rats; assay type: in vivo; conditions: SHHF rat left ventricle, 4 weeks treatment; FIG. 13
Description: Left ventricular gene expression levels of collagens I and III and BNP were determined as follows. mRNA expression analyses were performed as follows:
Heart samples (i.e. basal side of the hearts) were shock frozen in liquid nitrogen for RNA. Total RNA from the LV was isolated using the Ultraspec II kit (Bioteckx), according to the instructions of the manufacturer. After integrity checking and determining RNA concentrations with the nanodrop procedure, the RNA concentrations were adjusted to 100 ng/μl For first strand cDNA synthesis, 100 ng heat denatured RNA and 200 pmol random hexamer primers (Pharmacia, Uppsala Sweden) were transferred to a Ready-To-Go first strand bead (Pharmacia, Uppsala Sweden) tube and the volume adjusted to 33 μl.
The reaction (1 hour at 37° C.) was stopped by heat inactivating (2 minutes at 94° C.) the transcriptase and samples were cooled to 4° C. For conducting the real-time PCR, […] of the cDNA templates (100× diluted) were added to SYBR green master mix (Eurogentec) and primers (15 μM final concentration each) yielding a total volume of […], following the instructions of the Eurogentec.
PCR-primers (Sigma Genosys) were selected based on published primers/cDNA sequences and had the following sequences (5′→3′): […]
yielding products with fragment lengths of 253, 147 and 86 base pairs for PGK 1 (phosphoglycerate kinase 1), BNP (brain natriuretic peptide) and collagens I and -III respectively.
Samples were denatured and incubated for 40 cycles at 60° C. (120 seconds; annealing and synthesis) and 95° C. (15 seconds), during which fluorescence was continuously monitored (Biorad thermocycler).
Based on the linear part of the curves, initial gene concentrations were derived by comparing signals with standard curves. Validity of the procedure was checked by constructing melting curves for every sample.
Calculated gene expression levels were standardized for the house keeping gene PGK1 and were normalized versus RNA obtained from untreated control animals. Data are therefore expressed as arbitrary units (means±SEM).

C[C@]12C[C@H](O)[C@H]3[C@@H](CCC4=CC(=O)CC[C@@]43C)[C@@H]1CC[C@@H]2C(=O)CO [corticosterone]
corticosterone concentration in rat heart tissue [1]: higher concentration | cardiac filling rate ([2]; 6 or 60 micrograms/day IPC or IV, 4 weeks): improved | left ventricular end diastolic pressure ([2]; 6 or 60 micrograms/day IPC or IV, 4 weeks, FIG. 8): improved; also recorded: positively affects | left ventricular contractility ([2]; 6 or 60 micrograms/day IPC or IV, 4 weeks, FIG. 10): improved; also recorded: positively affects | left ventricular relaxation ([2]; 6 or 60 micrograms/day IPC or IV, 4 weeks, FIG. 11): positively affects | heart rate ([2]; right carotid artery, 4 weeks treatment, FIG. 5): no differences between treatments; also recorded: not affecting | mean arterial pressure (MAP) / blood pressure ([2]; right carotid artery, 4 weeks treatment, FIG. 6): no differences between treatments; also recorded: not affecting | left ventricular epicardial collagen area [3]: improved; also recorded: positively affects | echocardiographic examinations (left ventricular dimensions or performance parameters) [4]: no differences between treatments | mRNA expression of B-type natriuretic peptide (BNP) [5]: reduces | mRNA expression of Type I collagen [5]: reduces | mRNA expression of Type III collagen [5]: reduces
